Key:
[1] = target: T1, Full-length human PRMT6 (Homo sapiens, UniProt Q96LA8); assay: PRMT6 biochemical assay (3H-SAM Flashplate, peptide substrate)
T1 construct: Flag-PRMT6-His was eluted with 200 ug/ml FLAG peptide in the same buffer; made in house; host or cells: HEK 293F cells (BacMam virus, pFastBacMam)
Excerpt: (§1) General Materials. S-adenosylmethionine (SAM), S-adenosylhomocysteine (SAH), bicine, Tween20, dimethylsulfoxide (DMSO), bovine skin gelatin (BSG), sodium butyrate and Tris(2-carboxyethyl)phosphine hydrochloride solution (TCEP) were purchased from Sigma-Aldrich at the highest level of purity possible. ^3H-SAM was purchase from American Radiolabeled Chemicals with a specific activity of 80 Ci/mmol. 384-well streptavidin Flashplates were purchased from PerkinElmer.
Substrates. Peptide representative of human histone H4 residues 36-50 was synthesized with an N-terminal linker-affinity tag motif and a C-terminal amide cap by 21st Century Biochemicals.
The amplified gene was subcloned into pFastBacMam (Viva Biotech).
Protein Expression. Recombinant baculovirus were generated according to Bac-to-Bac kit instructions (Life Technologies). […] Infections were carried out at 37° C. for 48 hours, harvested by centrifugation, and stored at −80° C. for purification.
Protein Purification. […] Column was washed with 20 mM imidazole in the same buffer and Flag-PRMT6-His was eluted with 150 mM imidazole. Pooled fractions were dialysed against buffer Ni-A and further purified by anti-flag M2 affinity chromatography. Flag-PRMT6-His was eluted with 200 ug/ml FLAG peptide in the same buffer. Pooled fractions were dialysed in 20 mM Tris, 150 mM NaCl, 10% glycerol and 5 mM β-mercaptoethanol, pH 7.8.
(§2) General Procedure for PRMT6 Enzyme Assays on Peptide Substrates. The assays were all performed in a buffer consisting of 20 mM Bicine (pH=7.6), 1 mM TCEP, 0.005% BSG, and 0.002% Tween 20, prepared on the day of use. […] DMSO (1 ul) was added to Columns 11, 12, 23, 24, rows A-H for the maximum signal control and 1 ul of SAH, a known product and inhibitor of PRMT6, was added to columns 11, 12, 23, 24, rows I-P for the minimum signal control. A cocktail (40 ul) containing the PRMT6 enzyme was added by Multidrop Combi (Thermo-Fisher). The compounds were allowed to incubate with PRMT6 for 30 min at room temperature, then a cocktail (10 ul) containing SAM and peptide was added to initiate the reaction (final volume=51 ul). […] The assays were stopped by the addition of non-radiolabeled SAM (10 ul) to a final concentration of 400 uM, which dilutes the ^3H-SAM to a level where its incorporation into the peptide substrate is no longer detectable. 50 ul of the reaction in the 384-well polypropylene plate was then transferred to a 384-well Flashplate and the biotinylated peptides were allowed to bind to the streptavidin surface for at least 1 hour before being washed once with 0.1% Tween20 in a Biotek ELx405 plate washer. The plates were then read in a PerkinElmer TopCount plate reader to measure the quantity of ^3H-labeled peptide bound to the Flashplate surface, measured as disintegrations per minute (dpm) or alternatively, referred to as counts per minute (cpm).
(§3) Where dpm=disintegrations per minute, cmpd=signal in assay well, and min and max are the respective minimum and maximum signal controls.
(§4) Where top and bottom are the normally allowed to float, but may be fixed at 100 or 0 respectively in a 3-parameter fit. The Hill Coefficient normally allowed to float but may also be fixed at 1 in a 3-parameter fit. Y is the % inhibition and X is the compound concentration.

[2] = test system: mono-methyl arginine in RKO cells; assay: RKO methylation assay, In Cell Western for mono-methyl arginine and DNA content; assay type: cell-based; conditions: Homo sapiens; In Cell Western, RKO cells, 72 hours, percent activation of mono-methyl arginine signal; read-out: EC30
Excerpt: RKO adherent cells were purchased from ATCC (American Type Culture Collection), Manassas, Va., USA. DMEM/Glutamax medium, penicillin-streptomycin, heat inactivated fetal bovine serum, 0.05% trypsin and D-PBS were purchased from Life Technologies, Grand Island, N.Y., USA. Odyssey blocking buffer, 800CW goat anti-rabbit IgG (H+L) antibody, and Licor Odyssey infrared scanner were purchased from Licor Biosciences, Lincoln, Nebr., USA. Mono-methyl arginine antibody was purchased from Cell Signaling Technology, Danvers, Mass., USA. Methanol was purchased from VWR, Franklin, Mass., USA. 10% Tween 20 was purchased from KPL, Inc., Gaithersburg, Md., USA. […] was purchased from Biostatus Limited, Leicestershire, UK.
RKO adherent cells were maintained in growth medium (DMEM/Glutamax medium supplemented with 10% v/v heat inactivated fetal bovine serum and 100 units/mL penicillin-streptomycin) and cultured at 37° C. under 5% CO2
Cell Treatment, in Cell Western (ICW) for Detection of Mono-Methyl Arginine and DNA Content. […] Compound (100 nL) from a 96-well source plate was added directly to 384 well cell plate. Plates were incubated at 37° C., 5% CO2 for 72 hours. After three days of incubation, plates were brought to room temperature outside of the incubator for ten minutes and blotted on paper towels to remove cell media. 50 μL of ice cold 100% methanol was added directly to each well and incubated for 30 min at room temperature. After 30 min, plates were transferred to a Biotek EL406 plate washer and washed 2 times with 100 μL per well of wash buffer (1×PBS). Next 60 μL per well of Odyssey blocking buffer (Odyssey Buffer with 0.1% Tween 20 (v/v)) were added to each plate and incubated 1 hour at room temperature. Blocking buffer was removed and 20 μL per well of primary antibody was added (mono-methyl arginine diluted 1:200 in Odyssey buffer with 0.1% Tween 20 (v/v)) and plates were incubated overnight (16 hours) at 4° C. Plates were washed 5 times with 100 μL per well of wash buffer. […] The plates were washed 5 times with 100 μL per well wash buffer then 2 times with 100 μL per well of water. Plates were allowed to dry at room temperature then imaged on the Licor Odyssey machine which measures integrated intensity at 700 nm and 800 nm wavelengths. Both 700 and 800 channels were scanned.
Calculations: First, the ratio for each well was determined by:
Each plate included fourteen control wells of DMSO only treatment (minimum activation) as well as fourteen control wells for maximum activation treated with 20 μM of a reference compound. The average of the ratio values for each control type was calculated and used to determine the percent activation for each test well in the plate. Reference compound was serially diluted three-fold in DMSO for a total of nine test concentrations, beginning at 20 μM. Percent activation was determined and EC30 curves were generated using triplicate wells per concentration of compound.

[3] = target: T2, Full-length human PRMT1 isoform 1 (Homo sapiens, UniProt Q99873); assay: PRMT1 biochemical assay (3H-SAM Flashplate, peptide substrate)
T2 construct: GST-tagged PRMT1; made in house; host or cells: High Five insect cells (baculovirus, pFastBacI)
T2 sequence (Q99873 with tags, fused parts or gaps): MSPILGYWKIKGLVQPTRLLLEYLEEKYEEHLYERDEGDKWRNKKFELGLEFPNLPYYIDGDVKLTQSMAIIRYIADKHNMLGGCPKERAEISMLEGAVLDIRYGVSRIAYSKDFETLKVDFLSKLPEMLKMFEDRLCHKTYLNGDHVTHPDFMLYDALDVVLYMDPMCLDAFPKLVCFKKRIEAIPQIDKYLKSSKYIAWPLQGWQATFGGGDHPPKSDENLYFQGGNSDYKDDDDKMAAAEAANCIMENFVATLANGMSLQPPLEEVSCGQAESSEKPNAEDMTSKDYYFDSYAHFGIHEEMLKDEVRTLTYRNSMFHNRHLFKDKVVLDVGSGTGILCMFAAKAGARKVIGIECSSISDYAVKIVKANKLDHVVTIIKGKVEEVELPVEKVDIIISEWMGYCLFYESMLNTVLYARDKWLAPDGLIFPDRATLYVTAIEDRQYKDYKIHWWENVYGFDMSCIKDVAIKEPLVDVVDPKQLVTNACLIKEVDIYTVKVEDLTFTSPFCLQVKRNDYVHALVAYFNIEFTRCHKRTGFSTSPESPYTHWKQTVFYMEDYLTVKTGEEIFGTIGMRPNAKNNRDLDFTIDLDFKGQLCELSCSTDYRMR
Excerpt: as §1, with “(BSG),” for “(BSG), sodium butyrate”
Protein Expression. Recombinant baculovirus were generated according to Bac-to-Bac kit instructions (Life Technologies). […] Infections were carried out at 27° C. for 48 hours, harvested by centrifugation, and stored at −80° C. for purification.
Protein Purification. […] GST-tagged PRMT1 was eluted with 50 mM Tris, 2 mM glutathione, pH 7.8, dialysed in buffer A and concentrated to 1 mg/mL.
as §2, with “PRMT1” for “PRMT6”, “PRMT1,” for “PRMT6,”, “300” for “400”
as §3, §4

T1 sequence (Q96LA8 with tags, fused parts or gaps): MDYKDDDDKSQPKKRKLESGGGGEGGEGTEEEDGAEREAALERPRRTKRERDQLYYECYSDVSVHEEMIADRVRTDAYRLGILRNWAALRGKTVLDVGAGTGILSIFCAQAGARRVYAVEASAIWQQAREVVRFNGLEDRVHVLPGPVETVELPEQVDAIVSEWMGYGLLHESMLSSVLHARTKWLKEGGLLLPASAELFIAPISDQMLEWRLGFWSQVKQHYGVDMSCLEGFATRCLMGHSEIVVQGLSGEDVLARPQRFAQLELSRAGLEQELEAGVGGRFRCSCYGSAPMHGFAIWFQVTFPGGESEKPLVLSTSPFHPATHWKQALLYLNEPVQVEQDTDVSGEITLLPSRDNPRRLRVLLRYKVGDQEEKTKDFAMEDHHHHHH

Compound | IC50 [1] | EC30 [2] | IC50 [3]
CNCCN(C)Cc1c[nH]nc1-c1ccc(OC(C)C)cc1 [Compound 19, N^1-((3-(4-isopropoxyphenyl)-1H-pyrazol-4-yl)methyl)-N^1,N^2-dimethylethane-1,2-diamine] | < 100 nM | < 3000 nM | 
CNCCN(C)Cc1c[nH]nc1-c1ccc(OC2CCOCC2)cc1 [Compound 175] | < 100 nM | < 3000 nM | < 100 nM
CC(C)Oc1ccc(-c2nn(C)cc2CN(C)CCN)cc1 [Compound 176] | < 100 nM | < 3000 nM | < 100 nM
CC(C)Oc1ccc(-c2c(CN(C)CCN)cnn2C)cc1 [Compound 177] | < 100 nM | < 3000 nM | < 100 nM
CN(CCN)Cc1c[nH]nc1-c1ccc(OC2CCOCC2)cc1 [Compound 178] | < 100 nM | < 3000 nM | < 100 nM
COCCCOc1ccc(-c2n[nH]cc2CN(C)CCN)cc1 [Compound 179] | < 100 nM | < 3000 nM | < 100 nM
CNCCN(C)Cc1c[nH]nc1-c1ccc(OC(C)C)c(F)c1 [Compound 181] | < 100 nM | > 12000 nM | < 100 nM
CN(CCN)Cc1c[nH]nc1-c1ccc(OCCCN2CCOCC2)cc1 [Compound 186] | < 100 nM | > 12000 nM | 
CN(CCN)Cc1c[nH]nc1-c1ccc(N2CCN(C(=O)Cc3ccccc3)CC2)cc1 [Compound 190] | < 100 nM | 3010 to 12000 nM | 
CN(CCN)Cc1c[nH]nc1-c1ccc(Oc2ccccc2)cc1 [Compound 200] |  | < 3000 nM | 
CNCCN(C)Cc1cn[nH]c1-c1ccc(OC(C)C)c(Cl)c1 [Compound 201] | < 100 nM | < 3000 nM | 
CNCCN(C)Cc1cnn(C)c1-c1ccc(OC(C)C)c(Cl)c1 [Compound 220, N^1-((5-(3-chloro-4-isopropoxyphenyl)-1-methyl-1H-pyrazol-4-yl)methyl)-N^1,N^2-dimethylethane-1,2-diamine] | < 100 nM | < 3000 nM | 
COCCn1cnc(-c2ccc(C#N)cc2)c1CN(C)CCN [Compound 223] |  | > 12000 nM | > 10000 nM
CNCCN(C)Cc1c[nH]nc1-c1cc(C(C)C)cc(C(C)C)c1 [Compound 229, N^1-((3-(3,5-diisopropylphenyl)-1H-pyrazol-4-yl)methyl)-N^1,N^2-dimethylethane-1,2-diamine] | 101 to 1000 nM | 3010 to 12000 nM | < 100 nM
CNCCN(C)Cc1c[nH]nc1-c1ccc(Oc2cccc(OC)c2)cc1 [Compound 230] | < 100 nM | < 3000 nM | < 100 nM
CNCCN(C)Cc1c[nH]nc1-c1ccc(Oc2cccc(F)c2)cc1 [Compound 231] | < 100 nM | < 3000 nM | < 100 nM
CNCCN(C)Cc1c[nH]nc1-c1ccc(Oc2ccccc2)c(C(=O)NC)c1 [Compound 232] | < 100 nM | 3010 to 12000 nM | < 100 nM
CNCCN(C)Cc1c[nH]nc1-c1ccc(Oc2ccccc2)c(C(=O)N(C)C)c1 [Compound 233] | < 100 nM | > 12000 nM | < 100 nM
CNCCN(C)Cc1n[nH]cc1-c1ccc(Oc2ccccc2)c(C#N)c1 [Compound 234] | < 100 nM | < 3000 nM | < 100 nM
CC(C)Cc1cccc(-c2n[nH]cc2CN(C)CCN)c1 [Compound 235] | 101 to 1000 nM | < 3000 nM | < 100 nM
CNCCN(C)Cc1c[nH]nc1-c1ccc(OCCCO)cc1 [Compound 236] | < 100 nM | < 3000 nM | < 100 nM
CNCCN(C)Cc1c[nH]nc1-c1ccc(Oc2ccccc2F)cc1 [Compound 237] | < 100 nM | < 3000 nM | < 100 nM
CNCCN(C)Cc1c[nH]nc1-c1ccc(Oc2cccc(C(=O)N(C)C)c2)cc1 [Compound 264] | < 100 nM | 3010 to 12000 nM | 
CNCCN(C)Cc1n[nH]cc1-c1ccc(Oc2cccc(C(=O)N(C)C)c2)cc1 [Compound 269] | < 100 nM | > 12000 nM | 
CNCCN(C)Cc1n[nH]cc1-c1ccc(Oc2ccccc2C(=O)NC)cc1 [Compound 278] | < 100 nM | 3010 to 12000 nM | 
